The text below walks through data of patent US20230404969A1, “COMPOSITIONS AND METHOD FOR EFFECTIVE MANAGEMENT OF PERITONITIS” (priority 2022, published 2023).

Test [1] deals with Membrane attack complex (MAC). The experiment in a line: Membrane attack complex in peritoneal exudate (ELISA), chronic zymosan peritonitis. It is filed as in vivo, mouse. Particulars: 2 mg/kg, day 36. On the procedure:
(§1) Peritoneal inflammation was induced by Zymosan A (Sigma Chemical) (Masashi et al. Zymosan, but Not Lipopolysaccharide, Triggers Severe and Progressive Peritoneal Injury Accompanied by complement Activation in a Rat Peritonitis Model) was prepared freshly in sterile, 0.9% w/v saline, and 0.5 ml was injected i.p. from day 0 to Day 5. The lymphocyte population in the peripheral blood was determined with a flow cytometer. Cells were phenotyped by flow cytometry with the following primary antibodies: CD4 (FITC) and CD8 (PE). Cells were gated broadly on all live lymphocyte cells, with only debris and multiple cell clusters being excluded. Analysis of mean fluorescence intensity was done and percentage cell population was evaluated. The test drugs were administered for 30 days after the induction of peritonitis. On 36th day the peritoneal cavity was lavaged with 1.5 ml saline, and after a 30-s gentle manual massage, 0.5 ml exudate was retrieved, centrifuged at 3000 g for 3 min, and frozen at 220° C. prior to cytokine and chemotactic-factor assessment.
Assembly of Membrane attack complex (MAC) results from the complex pathway starting from C5 convertase cleaving C5 to form C5a and C5b. […] The protein concentrations were carried out by means of colorimetric measurement at 450 nm on an ELISA plate reader by interpolation from a standard curve. […]
On the technique in general: ELISA stands for enzyme-linked immunosorbent assay.

Test [2] concerns CD4+ T cells. Kind of test: Zymosan peritonitis chronic study: peripheral blood CD4+ T cell population (flow cytometry). It is filed as in vivo, mouse. The conditions noted are these: Withanone 2 mg/kg, day 36. On the procedure: as §1, with “On 36th day the peritoneal cavity was lavaged with 1.5 ml saline, and after a 30-s gentle manual massage, 0.5 ml exudate was retrieved, centrifuged at 3000 g for 3 min, and frozen at 220° C. prior to cytokine and chemotactic-factor assessment.” left out
(§2) Flow cytometry enables the characterization of cells and subcellular organelles on the basis of size and granularity and a number of different parameters defined by fluorescent probes. […] Fluorochrome labelled monoclonal antibodies directed against co-receptors CD4 and CD8 were used to quantify the lymphocyte subsets in a multiparametric flow cytometric assay. […]
On the technique in general: A flow cytometer gives signals particle by particle.

In test [3] the test system is IL-1β. The experiment in a line: Extracellular in vivo IL-1β estimation in serum from treated mice after LPS injection (ELISA). The conditions noted are these: 1 mg/kg p.o for 6 days, serum 90 mins after LPS injection, ↑ upregulation. On the procedure: (§3) BALM male mice aged 6-8 weeks were maintained at 22±2° C. under 12/12 h light dark cycle. Mice received oral treatment of test drugs at graded doses (w/v) for 6 days, followed by intravenous injection of 1 mg/kg (Brieva et al. Immunoferon, a glycoconjugate of natural origin, inhibits LPS-induced TNF-α production and inflammatory responses. International Immunopharmacology (2001) 1, 1979-1987). Six mice were employed in each group and experiments were performed in triplicates. Blood was collected from retro-orbital plexus of the experimental animals and serum was separated. TNF-α, IL-1β production was evaluated by a commercial ELISA kit in serum from treated mice, 90 mins after LPS injection.

For test [4], the system named is TNF-α. Kind of test: Extracellular in vivo TNF-α estimation in serum from treated mice after LPS injection (ELISA). Particulars: 1 mg/kg p.o for 6 days, serum 90 mins after LPS injection, ↑ upregulation. On the procedure: as §3
The test system of test [5] is CD8+ T cells. Kind of test: Zymosan peritonitis chronic study: peripheral blood CD8+ T cell population (flow cytometry). It is filed as in vivo, mouse. Particulars: Withanone 2 mg/kg, day 36. On the procedure:
as §1, with “On 36th day the peritoneal cavity was lavaged with 1.5 ml saline, and after a 30-s gentle manual massage, 0.5 ml exudate was retrieved, centrifuged at 3000 g for 3 min, and frozen at 220° C. prior to cytokine and chemotactic-factor assessment.” left out
as §2

In test [6] the test system is TNF-α. The experiment in a line: Cytometric Bead Array of peritoneal fluid, chronic zymosan peritonitis: TNF-α. The class given is in vivo, mouse. The conditions noted are these: 2 mg/kg, vs Zymosan control. Here is the method: as §1, with “The test drugs were administered for 30 days after the induction of peritonitis. On 36th day the peritoneal cavity was lavaged with 1.5 ml saline, and after a 30-s gentle manual massage, 0.5 ml exudate was retrieved, centrifuged at 3000 g for 3 min, and frozen at 220° C. prior to cytokine and chemotactic-factor assessment.” left out
(§4) The Cytometric Bead Array (Mouse Inflammation kit) was used to study cytokines in peritoneal fluid. […] Briefly, a mixture of 6 capture bead populations (50 μl) with distinct fluorescence intensities (detected in FL3) coated with antibodies specific for the above cytokines was mixed with each sample/standard (50 μl). […] Following acquisition of data by two colour cytometric analysis, the sample results were analysed using CBA software (BD Biosciences). […] Individual cytokine concentration ratios were indicated by their fluorescent intensities and was determined by interpolation from the corresponding standard curve.

Test [7] has as its system IFN-γ. Kind of test: Cytometric Bead Array of peritoneal fluid, chronic zymosan peritonitis: IFN-γ. The class given is in vivo, mouse. Particulars: 2 mg/kg, vs Zymosan control. On the procedure: as §1, with “The test drugs were administered for 30 days after the induction of peritonitis. On 36th day the peritoneal cavity was lavaged with 1.5 ml saline, and after a 30-s gentle manual massage, 0.5 ml exudate was retrieved, centrifuged at 3000 g for 3 min, and frozen at 220° C. prior to cytokine and chemotactic-factor assessment.” left out
as §4

In the case of `CC1=C(C)C(=O)O[C@@H]([C@@H](C)[C@@]2(O)CC[C@H]3[C@@H]4[C@@H]5O[C@@H]5[C@@]5(O)CC=CC(=O)[C@]5(C)[C@H]4CC[C@@]32C)C1` [Withanone], in test [1], the “Decrease of expression levels of MAC compared to the Zymosan control” value worked out at 56%. Further, in test [2], the “Inhibition of CD4+ compared to T cell population of Zymosan control” value is reported as 46%. Further, the “Percentage IL-1β inhibition compared to LPS control” value in test [3] is on record as 24.5%. Further, the “Percentage TNF-α inhibition compared to LPS control” value in test [4] is 37.05%. The “Inhibition of CD8+ compared to T cell population of Zymosan control” value in test [5] came to 44%. For the same molecule, in test [6], the “Inhibition of TNF-α” value is 58%. Moreover, in test [7], the “Inhibition of IFN-γ” value was determined as 44%.
